Test [1] has as its target T1, M. tuberculosis GyrA^A90V gyrase (Mycobacterium tuberculosis, UniProt P9WG47, A90V). In kind it is biochemical.
In test [2] the target is T1, M. tuberculosis GyrA^A90V gyrase. In kind it is biochemical. The source holds these as a separate data set.

The text below walks through data of paper PMC7450530 (Biochemistry, 2019).

As to `CC[C@H](C)n1cc(C)c2c(C(=O)NCc3c(C)cc(C)[nH]c3=O)cc(-c3ccc(N4CCNCC4)nc3)cc21` [GSK126], in test [1], the “single-stranded DNA cleavage enhancement compared to wild-type” value is “induced substantially more single-stranded DNA cleavage”. Moreover, in test [2], the “potency in supercoiling inhibition compared to the wild-type enzyme” value was “potency dropped considerably”.
